Data taken from US6630464B1, “Cyclin dependent kinase (CDK)4 inhibitors and their use for treating cancer” (The United States of America as represented by the …, priority 1997, dated 2003).
Where two headings read alike, the source gives them in different places.

Key:
CDK4:cyclin D1 = CDK4:cyclin D1 (Homo sapiens, UniProt P11802); assay: In vitro kinase assay, CDK4:cyclin D1, GST-Rb substrate; details: for CDK4 kinase inhibitory potency compared with parent compounds: parents 3-ATA and Compound 6
Experimental: In vitro kinase assay. Seventy-two hours after infection of 1×10^7 Sf9 cells with baculovirus containing a human CDK gene and/or a cyclin gene, cells were lysed in 250 μl of lysis buffer [50 mM HEPES (pH 7.5), 10 mM MgCl2, 1 mM DTT, 5 ig/ml of aprotinin, 5 μg/ml of leupeptin, 0.1 mM NaF, 0.2 mM phenylmethylsulfonyl fluoride (PMSF), and 0.1 mM sodium orthovanadate], centrifuged, and lysates stored at −70° C. Five microliters of CDK:cyclin lysate were mixed with test compounds in 40 μl of kinase buffer (200 mM Tris-HCl, pH 8.0, 100 mM MgCl2, 10 mM EGTA) and incubated at 30° C. for 30 min. About 400 ng of purified GST-Rb fusion protein and 5 μCi of γ-[^32P]ATP were added to the mixture and incubated at 30° C. for 15 min. Reactions were stopped by the addition of 250 μl of IP buffer (50 mM Tris-HCl, pH 8.0; 150 mM NaCl, 0.5% NP-40) and 15 μl glutathione sepharose. After one hour incubation at 4° C., sepharose beads were washed four times with IP buffer, mixed with 18 μl of 2×sample buffer and electrophoresed on an 8% Tris-glycine gel (Novex, San Diego, Calif.) at 125 V for 90 min. Equal recovery of GST-Rb fusion protein was confirmed by Coomassie blue staining prior to autoradiography.
These compounds were assessed for CDK4:cylin D kinase inhibitory activity using baculovirus-expressed human CDK4 and cyclin D1, and a GST-Rb fusion protein as substrate.
CDC2:cyclin A = biological target: T1, CDC2:cyclin A (Homo sapiens, UniProt P06493); assay: In vitro kinase assay, CDC2:cyclin A; assay type: biochemical; details: for Ratio CDC2A:CDK4: (IC50 CDC2)/(IC50 CDK4)
T1 construct: made in house; host or cells: Sf9 insect cells, baculovirus; unpurified lysate
Description: (§1) Characterization of 3-ATA. To examine the specificity of 3-ATA inhibitory activity for CDK4:cyclin D1 kinase, we performed in vitro kinase assays using baculovirus-expressed human CDC2:cyclin A, CDK2:cyclin A, and CDK2:cyclin E complexes.

CDK2:cyclin A = biological target: T2, CDK2:cyclin A (Homo sapiens, UniProt P24941); assay: In vitro kinase assay, CDK2:cyclin A; assay type: biochemical; details: for Ratio CDK2/A:CDK4: IC50 ratio, CDK4 as denominator
T2 construct: made in house; host or cells: Sf9 insect cells, baculovirus; unpurified lysate
Description: as §1

CDK4 = biological target: T3, CDK4 (Homo sapiens, UniProt P11802); assay: CDK4 binding assay (GST-p16 binding to CDK4)
T3 construct: made in house; host or cells: CDK4 and cyclin D1: Sf9 cells, baculovirus, [35S]methionine-labelled cleared lysate; GST-p16: E. coli DH5α
Experimental: CDK4 binding assay. Sf9 cells (1×10^7) were co-infected with baculovirus containing a cloned human CDK4 gene and/or a cyclin D1 gene in 12.5 ml of Grace's insect medium (Paragon, Baltimore, Md.) containing 10% FBS. After 40 h, cells were washed and placed in 5 ml of methionine-free medium containing 200 μCi/ml of [^35S]methionine (1000 Ci/mmole) for 4 h, followed by lysis in 250 μl. Cleared cell lysate (10 μl) was incubated with 400 ng of wildtype or mutant GST-p16 fusion proteins using the same conditions as the in vitro kinase assay. […] The gel was stained using Coomassie blue, dried, and autoradiography was performed. […] To test the effect of compounds on p16 binding to CDK4, 100 μM of each compound was incubated with CDK4:cyclin D1 lysate for 30 min prior to adding GST-p16 fusion protein.

CDK2:cyclin E = biological target: T4, CDK2:cyclin E (Homo sapiens, UniProt P24941); assay: In vitro kinase assay, CDK2:cyclin E; assay type: biochemical; details: for Ratio CDK2/E:CDK4: IC50 ratio, CDK4 as denominator
T4 construct: made in house; host or cells: Sf9 insect cells, baculovirus; unpurified lysate
Description: as §1

Chain of CDK4:cyclin D1 (P11802 whole entry): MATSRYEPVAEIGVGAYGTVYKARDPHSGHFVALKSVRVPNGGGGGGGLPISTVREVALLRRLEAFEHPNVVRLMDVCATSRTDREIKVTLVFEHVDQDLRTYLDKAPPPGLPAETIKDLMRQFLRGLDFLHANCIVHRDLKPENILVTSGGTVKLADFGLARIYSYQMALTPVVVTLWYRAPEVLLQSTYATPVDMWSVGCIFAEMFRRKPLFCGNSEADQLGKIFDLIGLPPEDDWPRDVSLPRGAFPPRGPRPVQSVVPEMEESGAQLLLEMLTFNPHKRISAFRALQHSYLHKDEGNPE
Chain of CDK4:cyclin D1 (P24385 whole entry partner): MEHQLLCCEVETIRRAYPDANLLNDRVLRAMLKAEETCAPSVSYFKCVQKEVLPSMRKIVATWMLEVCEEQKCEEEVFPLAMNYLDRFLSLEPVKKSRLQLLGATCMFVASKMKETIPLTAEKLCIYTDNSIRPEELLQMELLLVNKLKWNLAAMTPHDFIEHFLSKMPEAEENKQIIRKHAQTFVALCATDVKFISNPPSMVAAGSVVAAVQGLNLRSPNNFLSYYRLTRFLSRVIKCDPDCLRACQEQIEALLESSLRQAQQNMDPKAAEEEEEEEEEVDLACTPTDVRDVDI
T3 sequence (P11802 whole entry): as the sequence (P11802 whole entry) above

Row | Compound | IC50 (CDC2:cyclin A) [µM] | IC50 (CDK4:cyclin D1) [µM] | IC50 (CDK2:cyclin A) [µM] | Ratio CDK2/A:CDK4 (CDK2:cyclin A) | IC50 (CDK2:cyclin E) [µM] | Ratio CDK2/E:CDK4 (CDK2:cyclin E) | other results
1 | CCC/C=C/C=C/C(=O)O[C@H]1/C(=C/C(=O)OC)C[C@H]2C[C@H]([C@@H](C)O)OC(=O)C[C@H](O)C[C@@H]3C[C@H](OC(C)=O)C(C)(C)[C@](O)(C[C@@H]4C/C(=C/C(=O)OC)C[C@H](/C=C/C(C)(C)[C@]1(O)O2)O4)O3 [Bryostatin 1, reference compound] | – | – | – | – | – | – | Inhibition of GST-Rb phosphorylation by CDK4:cyclin D1 (CDK4:cyclin D1; concentrations up to 100 μM): no inhibitory activity
2 | Nc1ccc2c(=S)c3ccccc3[nH]c2c1 [Compound 3, 3-Amino-10H-acridine-9-thione] | 60 | 6.8 | > 100 | >14.7 | 80 | 11.8 | Ratio CDC2A:CDK4 (CDC2:cyclin A): 8.8; Ratio CDC2A:CDK4 (CDC2:cyclin A; listed as 3-ATA): at least nine-fold higher; Effect of exogenous ATP on inhibitory activity in CDK4 kinase assay (CDK4:cyclin D1; exogenous ATP 0 to 600 μM): did not alter the inhibitory activity; Ratio CDK2/A:CDK4 (CDK2:cyclin A; listed as 3-ATA): at least nine-fold higher; Decrease of binding of CDK4 to normal p16 (CDK4; 100 μM compound): 70%; Ratio CDK2/E:CDK4 (CDK2:cyclin E; listed as 3-ATA): at least nine-fold higher
3 | COc1ccc(OC)c2c(=S)c3ccccc3[nH]c12 [Compound 4, 1,4-Dimethoxy-10H-acridine-9-thione] | > 100 | 2.2 | > 100 | >45 | > 100 | >45 | Ratio CDC2A:CDK4 (CDC2:cyclin A): >45; CDC2 kinase inhibitory activity (CDC2:cyclin A; concentrations up to 100 μM): no CDC2 or CDK2 kinase inhibitory activity; CDK4 kinase inhibitory potency compared with parent compounds (CDK4:cyclin D1): more potent CDK4 kinase inhibitors than the parent compounds; CDK2 kinase inhibitory activity (CDK2:cyclin A) (CDK2:cyclin A; concentrations up to 100 μM): no CDC2 or CDK2 kinase inhibitory activity; Inhibition of p16INK4A binding to CDK4 (CDK4; 100 μM of each compound): did not inhibit; CDK2 kinase inhibitory activity (CDK2:cyclin E) (CDK2:cyclin E; concentrations up to 100 μM): no CDC2 or CDK2 kinase inhibitory activity
4 | O=S1(=O)NNC(=NCc2ccc(Cl)c(Cl)c2)c2ccccc21 [NSC 645788] | – | – | – | – | – | – | IC50 (CDK4:cyclin D1; read-out: IC50 value CDK4/D1): 17 µM
5 | C[C@@H]1[C@]2(O[C@H]3C=C4[C@@H]5CC[C@H]6Cc7nc8c(nc7C[C@]6(C)[C@H]5C[C@@H](O)[C@]4(C)[C@]31O)C[C@@H]1CC[C@H]3C4=CC[C@@H]5[C@H](C)[C@@]6(OC[C@]45C(=O)C[C@@H]3[C@@]1(C)C8)OC(C)(C)C[C@H]6O)O[C@](C)(CO)C[C@H]2O [cephalostatin 1, reference compound] | – | – | – | – | – | – | IC50 (CDK4:cyclin D1; read-out: IC50 value CDK4/D1): 20 µM

Continued, in another order:

Row | IC50 (CDC2:cyclin A) [µM] | IC50 (CDK4:cyclin D1) [µM] | IC50 (CDK2:cyclin A) [µM] | Ratio CDK2/A:CDK4 (CDK2:cyclin A) | IC50 (CDK2:cyclin E) [µM] | Ratio CDK2/E:CDK4 (CDK2:cyclin E) | Compound | other results
6 | 70 | 1.1 | > 100 | >91 | > 100 | >91 | O=C(CNc1ccc2c(=S)c3ccccc3[nH]c2c1)Nc1ccccc1-c1ccccc1NC(=O)CNc1ccc2c(=S)c3ccccc3[nH]c2c1 [Compound 5, 2,2′-Biphenyldiamine, bis[N,N′-[3-(amidonmethylamino)-10H-acridine-9-thione]]] | CDK4 kinase inhibitory potency compared with parent compounds (CDK4:cyclin D1): more potent CDK4 kinase inhibitors than the parent compounds
7 | > 100 | 5 | > 100 | – | > 100 | – | O=S1(=O)NN=C(NCc2ccc(F)cc2)c2ccccc21 [Compound 6, 4-(4-Fluorobenzylamino)-1,2,3-benzothiadiazine-1,1-dioxide] | –
